Experimental data: patent US20240360139A1, “BLOOD BRAIN BARRIER PENETRATING SELECTIVE INHIBITORS OF ROCK2 PROTEIN KINASES AND USES THEREOF” (GENOSCO Inc., priority 2023, published 2024)

Key:
[1] = molecular target: T1, Recombinant ROCK1 (amino acids 1-477) (Homo sapiens, UniProt Q13464); experiment: ROCK inhibition assay, LANCE Ultra TR-FRET (ROCK1); type: biochemical; conditions: 1 mM of ATP
T1 construct: Recombinant ROCK1 (amino acids 1-477)
Procedure: (§1) Kinase IC50 was determined through an in vitro assay based on LANCE Ultra TR-FRET (Time-Resolved Fluorescence Resonance Energy Transfer) homogeneous technologies method 5 (Perkin Elmer). Recombinant ROCK1 (amino acids 1-477) and ROCK2 (amino acids 5-554) proteins were purchased from Carna Biosciences and SignalChem. Compound activities were measured by Envision and IC50s were calculated. The assays were performed in white LUMITRAC™ 200 96 well half-area microplates from Greiner Bio-One. The kinase reaction buffer consisted of 50 mM HEPES pH 7.5, 1 mM EGTA, 10 mM MgCl2, 2 mM DTT and 0.01% 10 Tween-20. Kinases were incubated with 50 nM (ULight-CREBtide) substrate in the presence of 1 mM (ROCK1) or 1 mM (ROCK2) of ATP. The kinase reaction was carried out for 1 hour before addition of a stopping buffer to a final of 10 mM EDTA and 0.6 nM of LANCE Ultra Europium anti-phospho-CREB (Ser133) antibody (PerkinElmer TRF0200) in LANCE detection buffer. All assay incubations were performed at room temperature, and the microplates were sealed with polyester film during that time. The reaction was incubated for 1 hour, and the signal was read in Envision in TR-FRET mode (excitation at 320 nm and emission at 615/665 nm).
(§2) As used herein, a way to describe potency of inhibitory activity (nM) is a value of inhibitory activity at 50% (IC50).

[2] = molecular target: T2, Recombinant ROCK2 (amino acids 5-554) (Homo sapiens, UniProt O75116); experiment: ROCK inhibition assay, LANCE Ultra TR-FRET (ROCK2); type: biochemical; conditions: 1 mM of ATP
T2 construct: ROCK2 (amino acids 5-554)
T2 sequence (O75116 5-554): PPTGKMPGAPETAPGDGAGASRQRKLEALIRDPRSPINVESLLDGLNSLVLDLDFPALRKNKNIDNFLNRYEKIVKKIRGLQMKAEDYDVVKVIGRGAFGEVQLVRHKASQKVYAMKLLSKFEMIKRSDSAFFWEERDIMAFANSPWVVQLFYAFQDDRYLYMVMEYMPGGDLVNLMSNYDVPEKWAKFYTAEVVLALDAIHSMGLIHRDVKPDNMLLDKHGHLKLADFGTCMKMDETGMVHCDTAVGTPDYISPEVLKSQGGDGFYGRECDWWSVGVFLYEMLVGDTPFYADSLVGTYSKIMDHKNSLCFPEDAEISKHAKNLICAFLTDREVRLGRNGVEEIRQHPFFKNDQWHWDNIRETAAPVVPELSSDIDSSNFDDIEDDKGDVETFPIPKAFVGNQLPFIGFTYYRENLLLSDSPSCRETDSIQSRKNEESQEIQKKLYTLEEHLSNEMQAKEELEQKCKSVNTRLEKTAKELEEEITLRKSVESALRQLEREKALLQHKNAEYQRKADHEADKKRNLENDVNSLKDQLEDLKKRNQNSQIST
Procedure: as §1, §2

T1 sequence (Q13464 1-477): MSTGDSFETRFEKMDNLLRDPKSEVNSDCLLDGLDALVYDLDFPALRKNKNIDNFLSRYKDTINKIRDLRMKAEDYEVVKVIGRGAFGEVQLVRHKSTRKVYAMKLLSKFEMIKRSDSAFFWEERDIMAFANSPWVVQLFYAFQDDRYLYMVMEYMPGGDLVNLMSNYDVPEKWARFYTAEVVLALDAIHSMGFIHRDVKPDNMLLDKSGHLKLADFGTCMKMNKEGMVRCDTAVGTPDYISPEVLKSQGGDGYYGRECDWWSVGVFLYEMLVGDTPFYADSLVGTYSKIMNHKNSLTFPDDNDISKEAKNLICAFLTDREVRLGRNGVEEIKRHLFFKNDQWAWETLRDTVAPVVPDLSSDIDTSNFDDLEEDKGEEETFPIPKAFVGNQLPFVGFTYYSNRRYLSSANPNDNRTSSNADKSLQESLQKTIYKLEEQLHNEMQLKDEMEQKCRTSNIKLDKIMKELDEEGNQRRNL

Row | Compound | IC50 [1] [nM] | IC50 [2] [nM]
1 | COc1ccc2c(c1)CC(C(=O)c1cn(C[C@H]3CCN3)c3cc(-c4cn[nH]c4Cl)ccc13)CO2 (some centres unmarked) [Compound 1-35] | 21 to 200 | < 20
2 | COc1ccc2c(c1)CC(C(=O)c1cn(C[C@@H]3CCN3)c3cc(-c4cn[nH]c4OC)ccc13)CO2 (some centres unmarked) [Compound 1-41] | 201 to 500 | < 20
3 | COc1ccc2c(c1)CC(C(=O)c1cn(C[C@H]3CCN3C)c3cc(-c4cn[nH]c4Cl)ccc13)CO2 (some centres unmarked) [Compound 1-50] | > 501 | < 20
4 | CN(C)CCn1cc(C(=O)C2COc3ccc(Cl)cc3C2)c2cnc(-c3c[nH]nc3Cl)cc21 (centres unmarked) [Compound 1-11] | > 501 | > 501
5 | COc1[nH]ncc1-c1ccc2c(C(=O)C3COc4ccc(Cl)cc4C3)cn(CC3CNC3)c2c1 (centres unmarked) [Compound 1-22] | < 20 | < 20
6 | COc1[nH]ncc1-c1ccc2c(C(=O)C3COc4ccc(Cl)cc4C3)cn(C[C@H]3CCCN3C)c2c1 (some centres unmarked) [Compound 1-28] | > 501 | > 501
7 | CCN1CC[C@@H]1Cn1cc(C(=O)C2COc3ccc(OC)cc3C2)c2ccc(-c3cn[nH]c3Cl)cc21 (some centres unmarked) [Compound 1-58] | > 501 | 21 to 200
8 | COc1[nH]ncc1-c1ccc2c(C(=O)C3COc4ccc(Cl)cc4C3)cn(CC3CCN3)c2c1 (centres unmarked) [Compound 1-32] | > 501 | < 20
9 | O=C(c1cn(CC2CNC2)c2cc(-c3cn[nH]c3Cl)ccc12)C1COc2ccc(Cl)cc2C1 (centres unmarked) [Compound 1-21] | < 20 | < 20
10 | CN(C)CCn1cc(C(=O)[C@@H]2COc3ccc(Cl)cc3C2)c2ccc(-c3cn[nH]c3F)cc21 [Compound 1-25] | 201 to 500 | 21 to 200
11 | CN(C)CCn1cc(C(=O)C2COc3ccc(Cl)cc3C2)c2cnc(-c3cn[nH]c3F)nc21 (centres unmarked) [Compound 1-34] | > 501 | 201 to 500
12 | COc1ccc2c(c1)CC(C(=O)c1cn(CCN(C)C)c3cc(-c4c[nH]nc4Cl)ncc13)CO2 (centres unmarked) [Compound 1-14] | > 501 | 201 to 500
13 | CN1CC[C@@H]1Cn1cc(C(=O)C2COc3ccc(Cl)cc3C2)c2ccc(-c3cn[nH]c3F)cc21 (some centres unmarked) [Compound 1-57] | > 501 | 201 to 500
14 | COc1ccc2c(c1)CC(C(=O)c1cn(C[C@H]3CCN3)c3cc(-c4cn[nH]c4OC)ccc13)CO2 (some centres unmarked) [Compound 1-42] | 201 to 500 | < 20
15 | CCN1CC[C@@H]1Cn1cc(C(=O)C2COc3ccc(OC)cc3C2)c2ccc(-c3cn[nH]c3OC)cc21 (some centres unmarked) [Compound 1-56] | > 501 | 21 to 200
16 | COc1[nH]ncc1-c1cc2c(cn1)c(C(=O)C1COc3ccc(Cl)cc3C1)cn2CCN(C)C (centres unmarked) [Compound 1-1, (6-chlorochroman-3-yl)-[1-[2-(dimethylamino)ethyl]-6-(3-methoxy-1H-pyrazol-4-yl)pyrrolo[3,2-c]pyridin-3-yl]methanone] | > 501 | 21 to 200
17 | O=C(c1cn(C[C@H]2CCN2)c2cc(-c3cn[nH]c3Cl)ccc12)C1COc2ccc(Cl)cc2C1 (some centres unmarked) [Compound 1-39] | > 501 | 21 to 200
18 | O=C(c1cn(C2CNC2)c2cc(-c3c[nH]nc3Cl)ncc12)C1COc2ccc(F)cc2C1 (centres unmarked) [Compound 1-15] | > 501 | 21 to 200
19 | O=C(c1cn(CC2CCN2)c2cc(-c3cn[nH]c3F)ccc12)C1COc2ccc(Cl)cc2C1 (centres unmarked) [Compound 1-30] | > 501 | < 20
20 | CN(C)CCn1cc(C(=O)C2COc3ccc(F)cc3C2)c2cnc(-c3c[nH]nc3Cl)cc21 (centres unmarked) [Compound 1-12] | > 501 | 201 to 500

Now from value to molecule:

Row | IC50 [1] [nM] | IC50 [2] [nM] | Compound
21 | > 501 | 21 to 200 | CNCCn1cc(C(=O)C2COc3ccc(F)cc3C2)c2cnc(-c3c[nH]nc3Cl)cc21 (centres unmarked) [Compound 3-2]
22 | 21 to 200 | < 20 | COc1n[nH]cc1-c1ccc2c(C(=O)C3COc4ccc(Cl)cc4C3)cn(C[C@@H](C)N)c2c1 (some centres unmarked) [Compound 2-6]
23 | 21 to 200 | < 20 | NCCn1cc(C(=O)C2COc3ccc(F)cc3C2)c2cnc(-c3c[nH]nc3Cl)cc21 (centres unmarked) [Compound 2-3]
24 | > 501 | 21 to 200 | COc1n[nH]cc1-c1ccc2c(C(=O)C3COc4ccc(Cl)cc4O3)nn(CCN(C)C)c2c1 (centres unmarked) [Compound 5-59]
25 | > 501 | < 20 | COc1n[nH]cc1-c1ccc2c(C(=O)C3COc4ccc(Cl)cc4C3)nn(CCN(C)C)c2c1 (centres unmarked) [Compound 5-45]
26 | > 501 | < 20 | COc1[nH]ncc1-c1ccc2c(C(=O)C3COc4ccc(F)cc4C3)cn(CCN(C)C)c2c1 (centres unmarked) [Compound 5-37]
27 | 201 to 500 | < 20 | CN(C)CCn1nc(C(=O)C2COc3ccc(F)cc3C2)c2ccc(-c3c[nH]nc3Cl)cc21 (centres unmarked) [Compound 5-52]
28 | 201 to 500 | 21 to 200 | COc1n[nH]cc1-c1ccc2c(C(=O)[C@@H]3COc4ccc(Cl)cc4C3)cn(CCCN(C)C)c2c1 [Compound 3-7]
29 | 201 to 500 | < 20 | COc1[nH]ncc1-c1ccc2c(C(=O)[C@@H]3COc4ccc(Cl)cc4C3)cn(CCN(C)C)c2c1 [Compound 5-30]
30 | 21 to 200 | < 20 | COc1ccc2c(c1)CC(C(=O)c1cn(CC3(N)CC3)c3cc(-c4cn[nH]c4Cl)ccc13)CO2 (centres unmarked) [Compound 4-3]
31 | 21 to 200 | < 20 | COc1ccc2c(c1)CC(C(=O)c1cn(CC3(N)CC3)c3cc(-c4cn[nH]c4F)ccc13)CO2 (centres unmarked) [Compound 4-6]
32 | > 501 | 21 to 200 | CCN(C)CCn1cc(C(=O)[C@@H]2COc3ccc(OC)cc3C2)c2ccc(-c3cn[nH]c3Cl)cc21 [Compound 3-28]
33 | > 501 | 21 to 200 | CCN(C)CCn1cc(C(=O)C2COc3ccc(Cl)cc3C2)c2ccc(-c3cn[nH]c3OC)cc21 (centres unmarked) [Compound 3-11]
34 | 201 to 500 | < 20 | COc1ccc2c(c1)C[C@H](C(=O)c1cn(C[C@H]3CCN3CCF)c3cc(-c4c[nH]nc4Cl)ccc13)CO2 [Compound 5-9]
35 | > 501 | 201 to 500 | COc1[nH]ncc1-c1ccc2c(C(=O)[C@H]3COc4ccc(F)cc4C3)cn(CCN(C)C)c2c1 [Compound 5-40]
36 | > 501 | 21 to 200 | CCN(CCF)CCn1cc(C(=O)[C@@H]2COc3ccc(OC)cc3C2)c2ccc(-c3c[nH]nc3Cl)cc21 [Compound 5-12]

Row | IC50 [1] [nM] | IC50 [2] [nM] | Compound
37 | 201 to 500 | < 20 | COc1n[nH]cc1-c1ccc2c(C(=O)[C@@H]3COc4ccc(Cl)cc4C3)nn(CCN(C)C)c2c1 [Compound 5-46]
38 | 201 to 500 | < 20 | COc1ccc2c(c1)C[C@H](C(=O)c1cn(C[C@H]3CCN3CC(F)F)c3cc(-c4c[nH]nc4Cl)ccc13)CO2 [Compound 5-10]
39 | > 501 | 21 to 200 | CN(C)CCn1nc(C(=O)C2COc3ccc(Cl)cc3O2)c2ccc(-c3c[nH]nc3F)cc21 (centres unmarked) [Compound 5-60]
40 | 201 to 500 | < 20 | CN(C)CCn1nc(C(=O)C2COc3ccc(F)cc3C2)c2ccc(-c3c[nH]nc3F)cc21 (centres unmarked) [Compound 5-55]
41 | > 501 | 21 to 200 | COc1ccc2c(c1)C[C@H](C(=O)c1cn(CCN(CCF)CCF)c3cc(-c4c[nH]nc4Cl)ccc13)CO2 [Compound 5-15]
42 | < 20 | < 20 | NC1(Cn2cc(C(=O)C3COc4ccc(Cl)cc4C3)c3ccc(-c4cn[nH]c4F)cc32)CC1 (centres unmarked) [Compound 4-5]
43 | > 501 | < 20 | CCN(CC)CCn1cc(C(=O)[C@@H]2COc3ccc(Cl)cc3C2)c2ccc(-c3cn[nH]c3OC)cc21 [Compound 3-14]
44 | 21 to 200 | 21 to 200 | COc1ccc2c(c1)C[C@H](C(=O)c1cn(C[C@H]3CCN3CC(F)(F)F)c3cc(-c4c[nH]nc4Cl)ccc13)CO2 [Compound 5-11]
45 | > 501 | 21 to 200 | CNCCn1cc(C(=O)C2COc3ccc(F)cc3C2)c2ccc(-c3c[nH]nc3Cl)nc21 (centres unmarked) [Compound 3-3]
46 | 21 to 200 | < 20 | NCCn1cc(C(=O)C2COc3ccc(Cl)cc3C2)c2cnc(-c3c[nH]nc3Cl)cc21 (centres unmarked) [Compound 2-1, [1-(2-aminoethyl)-6-(3-chloro-1H-pyrazol-4-yl)pyrrolo[3,2-c]pyridin-3-yl]-(6-chlorochroman-3-yl) methanone]
47 | 201 to 500 | < 20 | C[C@H](Cn1cc(C(=O)C2COc3ccc(Cl)cc3C2)c2ccc(-c3cn[nH]c3Cl)cc21)N(C)C (some centres unmarked) [Compound 2-15]
48 | > 501 | 21 to 200 | CN(C)CCn1cc(C(=O)C2COc3ccc(F)cc3C2)c2ccc(-c3c[nH]nc3Cl)cc21 (centres unmarked) [Compound 5-19]
49 | > 501 | < 20 | C[C@H](Cn1cc(C(=O)C2COc3ccc(Cl)cc3C2)c2ccc(-c3cn[nH]c3F)cc21)N(C)C (some centres unmarked) [Compound 2-16]
50 | > 501 | 21 to 200 | CN(C)CCn1nc(C(=O)C2COc3ccccc3O2)c2ccc(-c3cn[nH]c3)cc21 (centres unmarked) [Compound 5-43]
51 | > 501 | 201 to 500 | CN(C)CCn1nc(C(=O)C2COc3ccccc3C2)c2ccc(-c3c[nH]nc3C(F)(F)F)cc21 (centres unmarked) [Compound 5-54]
52 | 21 to 200 | < 20 | COc1ccc2c(c1)CC(C(=O)c1nn(CCN(C)C)c3cc(-c4c[nH]nc4OC)ccc13)CO2 (centres unmarked) [Compound 5-49]
